Test system: GEMS receptors with CBPA11 (BclXL–LD3 and BclXLhigh variants), STAT3-driven SEAP in HEK293T cells
Test: GEMS SEAP reporter assay, CBPA11 (BclXLhigh, LD3-v and BclXL-v variants) with A-1155463
Type: cell-based
Design: key to Raw data (SEAP) / SEAP, replicate values / Raw data of Figure 5b / Raw data Figure 5e / Raw data of Independent repeat of CBPA11-v1 vs CBPA11-v1-LD3v3 / Raw data of Independent repeat of CBPA11-v3 vs CBPA11-v3-LD3v3 / Raw data of Figure 5b, CBPA11-v1-LD3v3 (SEAP reporter raw value, single replicate) / Raw data of Figure 5b, CBPA11-v1 (SEAP reporter raw value, single replicate): SEAP activity in U/L in culture supernatant
Excerpt: To rationally design a CBP responding to a chemical input, we used BclXL as the druglow receptor, LD3 as the designed binder and a designed BclXL variant as the drughigh receptor (referred to as BclXLhigh) to construct a CBP responsive to BclXL inhibitors (Fig. 4a). To design BclXLhigh, we used a multistate design computational protocol described elsewhere[26] […] Thus, BclXLhigh-v(1–3) were chosen as the functional drughigh receptors, resulting in three A-1155463-controlled CBPs (referred to as CBPA11-v(1–3)) (Fig. 4c–e).
HEK293T cells were seeded in a 96-well plate 24 h before transfection. The transfection mix in each well consisted of 3 ng of constitutive human CMV promoter driven mammalian STAT3 expression vector (PhCMV-STAT3-pA), 30 ng of STAT3-induced reporter expression (OStat3-PhCMVmin-SEAP-pA) and 50 ng of expression vectors for each GEMS receptor chain (PSV40-IgK-(drughigh receptor)-EpoRm-IL-6RBm-pA and PSV40-IgK-(druglow receptor-GGGGSX3-LD3)-EpoRm-IL-6RBm-pA). For the specific drughigh receptor and druglow receptor used in the different cellular assays, they are indicated as wild type or with mutations. Then, plasmid DNA was mixed with 50 μl opti-MEM (Thermo Fisher) and 600 ng of polyethyleneimine (Polysciences, catalog no. 24765-1). For drug treatment experiments, drugs were added 12 h post-transfection and incubated with cells for 24 h before the SEAP reporter detection assay.
SEAP activity (U l^−1) in cell culture supernatants was quantified by kinetic measurements at 405 nm (1 minute per measurement for 30 cycles) of absorbance increase due to phosphatase-mediated hydrolysis of para-nitrophenyl phosphate (pNPP).
Binding affinities of SPR drug competition assays were calculated using three-parameter nonlinear regression in GraphPad Prism (v.8.3.0). Representative data of cell assays are presented as individual values and mean values (bars). n = 3 refers to biological replicates. All IC50 or EC50 values of cell assays reported were calculated using four-parameter nonlinear regression ± s.d. Bandpass features of cutoff concentrations and Bandwidth90% were estimated based on the curve fitted using bell-shaped curve nonlinear regression in GraphPad Prism (v.8.3.0). […]
Supplementary Figure 4: Design, screening and validation of BclXLhigh variants. a) Screening of BclXLhigh variants in the GEMS platform. […]
Dissociation constant measurement of BclXLhigh-v(1-3) and LD3. Equilibrium curves are fitted using […]
BclXLhigh-v1 (purple), BclXLhigh-v2 (blue), […]
a) Bcl2high-based bandpass filter designs were developed and to respond to different concentrations of […]
corresponding inhibitor. c) Screening of Bcl2high-based bandpass filter variants in the GEMS platform.
The designed binder LD3 was fused to the druglow-receptor (PSV40-IgK-Bcl2-LD3-EpoRm-IL-6RBm-pA) in one EpoR chain and Bcl2high variants with the insensitive Bcl2 (iBcl2) as control in the other EpoR chain (PSV40-IgK-Bcl2high-EpoRm-IL-6RBm-pA). HEK293T cells were transfected with indicated […]
the mean of six biological replicates ± s.d., overlaid with a scatter dot plot of the original data points.
(1 picture or pasted object on this page, not shown here)
Supplementary Figure 6: Binding affinities and drug resistances of Bcl2high-v(2,4,5) assessed by […]
a) Measurement of dissociation constants for Bcl2high-v(2,4,5) and LD3 interactions. Equilibrium curves […]
Bcl2high-v(2,4,5) measured by SPR. 5 μM of Bcl2 or indicated variants were mixed with 10 μM of […]
Bcl2high-v2 (red), Bcl2high-v4
Supplementary Figure 7: Screening of LD3 variants in CBPA11-v(1-3) and raw data of CBPA11-v(1,3) with LD3-v3 variant. a-c) Screening of LD3 and LD3-v(1-3) variants in complex with BclXL for more sensitive CBPA11-v1 (a), CBPA11-v2 (b), CBPA11-v3 (c) in the GEMS platform. The LD3 variants replaced the role of LD3 (PSV40-IgK-BclXL-LD3-v(1-3)-EpoRm-IL-6RBm-pA) in one EpoR chain and BclXLhigh-v(1-3) in the other EpoR chain (PSV40-IgK-BclXLhigh-V(1-3)-EpoRm-IL-6RBm-pA). HEK293T cells were transfected with […]

[1] = SuppFigure 9a, BclXL, A-1155463 3.16 nM
[2] = SuppFigure 9a, BclXL, A-1155463 100 nM
[3] = SuppFigure 9a, BclXL, A-1155463 316 nM
[4] = SuppFigure 9a, BclXL, A-1155463 1000 nM
[5] = SuppFigure 9a, BclXL, A-1155463 3160 nM
[6] = SuppFigure 9a, BclXL, A-1155463 10000 nM
[7] = SuppFigure 9b, BclXL-v1, A-1155463 1 nM
[8] = SuppFigure 9b, BclXL-v1, A-1155463 3.16 nM
[9] = SuppFigure 9b, BclXL-v1, A-1155463 10 nM
[10] = SuppFigure 9b, BclXL-v1, A-1155463 31.6 nM
[11] = SuppFigure 9b, BclXL-v1, A-1155463 100 nM
[12] = SuppFigure 9b, BclXL-v1, A-1155463 316 nM
[13] = SuppFigure 9b, BclXL-v1, A-1155463 1000 nM
[14] = SuppFigure 9b, BclXL-v1, A-1155463 3160 nM
[15] = SuppFigure 9b, BclXL-v1, A-1155463 10000 nM
[16] = SuppFigure 9b, BclXL-v2, A-1155463 1 nM
[17] = SuppFigure 9b, BclXL-v2, A-1155463 3.16 nM
[18] = SuppFigure 9b, BclXL-v2, A-1155463 10 nM
[19] = SuppFigure 9b, BclXL-v2, A-1155463 31.6 nM
[20] = SuppFigure 9b, BclXL-v2, A-1155463 100 nM
[21] = SuppFigure 9b, BclXL-v2, A-1155463 316 nM
[22] = SuppFigure 9b, BclXL-v2, A-1155463 1000 nM
[23] = SuppFigure 9b, BclXL-v2, A-1155463 3160 nM
[24] = SuppFigure 9b, BclXL-v2, A-1155463 10000 nM
[25] = SuppFigure 9b, BclXL-v3, A-1155463 1 nM
[26] = SuppFigure 9b, BclXL-v3, A-1155463 3.16 nM
[27] = SuppFigure 9b, BclXL-v3, A-1155463 10 nM
[28] = SuppFigure 9b, BclXL-v3, A-1155463 31.6 nM
[29] = SuppFigure 9b, BclXL-v3, A-1155463 100 nM
[30] = SuppFigure 9b, BclXL-v3, A-1155463 316 nM
[31] = SuppFigure 9b, BclXL-v3, A-1155463 1000 nM
[32] = SuppFigure 9b, BclXL-v3, A-1155463 3160 nM
[33] = SuppFigure 9b, BclXL-v3, A-1155463 10000 nM
[34] = SuppFigure 9b, BclXL, A-1155463 1 nM
[35] = SuppFigure 9b, BclXL, A-1155463 3.16 nM
[36] = SuppFigure 9b, BclXL, A-1155463 10 nM
[37] = SuppFigure 9b, BclXL, A-1155463 31.6 nM
[38] = SuppFigure 9b, BclXL, A-1155463 100 nM
[39] = SuppFigure 9b, BclXL, A-1155463 316 nM
[40] = SuppFigure 9b, BclXL, A-1155463 1000 nM
[41] = SuppFigure 9b, BclXL, A-1155463 3160 nM
[42] = SuppFigure 9b, BclXL, A-1155463 10000 nM
[43] = SuppFigure 9c, LD3, A-1155463 1 nM
[44] = SuppFigure 9c, LD3, A-1155463 3.16 nM
[45] = SuppFigure 9c, LD3, A-1155463 10 nM
[46] = SuppFigure 9c, LD3, A-1155463 31.6 nM
[47] = SuppFigure 9c, LD3, A-1155463 100 nM

Structure (SMILES): CN(C)CC#Cc1ccc(OCCCc2sc(N3CCc4cccc(C(=O)Nc5nc6ccccc6s5)c4C3)nc2C(=O)O)c(F)c1 [A-1155463]
- Normalized data (SEAP) [1]: 6.043
- Raw data (SEAP) [1]: 25.9846
- Normalized data (SEAP) [2]: 100
- Raw data (SEAP) [2]: 429.99
- Normalized data (SEAP) [3]: 92.0518
- Raw data (SEAP) [3]: 395.813
- Normalized data (SEAP) [4]: 64.9807
- Raw data (SEAP) [4]: 279.41
- Normalized data (SEAP) [5]: 59.757
- Raw data (SEAP) [5]: 256.949
- Normalized data (SEAP) [6]: 20.582
- Raw data (SEAP) [6]: 88.5006
- Normalized data (SEAP) [7]: 29.2402
- Raw data (SEAP) [7]: 3.306
- Normalized data (SEAP) [8]: 25.4197
- Raw data (SEAP) [8]: 2.874
- Normalized data (SEAP) [9]: 91.2564
- Raw data (SEAP) [9]: 10.3177
- Normalized data (SEAP) [10]: 99.5447
- Raw data (SEAP) [10]: 11.2548
- Normalized data (SEAP) [11]: 88.866
- Raw data (SEAP) [11]: 10.0475
- Normalized data (SEAP) [12]: 80.3713
- Raw data (SEAP) [12]: 9.087
- Normalized data (SEAP) [13]: 71.8768
- Raw data (SEAP) [13]: 8.127
- Normalized data (SEAP) [14]: 100
- Raw data (SEAP) [14]: 11.3063
- Normalized data (SEAP) [15]: 93.1986
- Raw data (SEAP) [15]: 10.5373
- Normalized data (SEAP) [16]: 14.254
- Raw data (SEAP) [16]: 6.039
- Normalized data (SEAP) [17]: 18.0852
- Raw data (SEAP) [17]: 7.662
- Normalized data (SEAP) [18]: 44.9661
- Raw data (SEAP) [18]: 19.0516
- Normalized data (SEAP) [19]: 70.6852
- Raw data (SEAP) [19]: 29.9485
- Normalized data (SEAP) [20]: 100
- Raw data (SEAP) [20]: 42.3689
- Normalized data (SEAP) [21]: 44.6168
- Raw data (SEAP) [21]: 18.9036
- Normalized data (SEAP) [22]: 22.2068
- Raw data (SEAP) [22]: 9.409
- Normalized data (SEAP) [23]: 14.8235
- Raw data (SEAP) [23]: 6.281
- Normalized data (SEAP) [24]: 14.5729
- Raw data (SEAP) [24]: 6.174
- Normalized data (SEAP) [25]: 52.1022
- Raw data (SEAP) [25]: 4.346
- Normalized data (SEAP) [26]: 54.3684
- Raw data (SEAP) [26]: 4.535
- Normalized data (SEAP) [27]: 49.6336
- Raw data (SEAP) [27]: 4.14
- Normalized data (SEAP) [28]: 58.6885
- Raw data (SEAP) [28]: 4.895
- Normalized data (SEAP) [29]: 75.7473
- Raw data (SEAP) [29]: 6.318
- Normalized data (SEAP) [30]: 55.3616
- Raw data (SEAP) [30]: 4.618
- Normalized data (SEAP) [31]: 57.9749
- Raw data (SEAP) [31]: 4.836
- Normalized data (SEAP) [32]: 83.7705
- Raw data (SEAP) [32]: 6.988
- Normalized data (SEAP) [33]: 90.2218
- Raw data (SEAP) [33]: 7.526
- Normalized data (SEAP) [34]: 18.8536
- Raw data (SEAP) [34]: 4.217
- Normalized data (SEAP) [35]: 21.8131
- Raw data (SEAP) [35]: 4.879
- Normalized data (SEAP) [36]: 73.5481
- Raw data (SEAP) [36]: 16.4519
- Normalized data (SEAP) [37]: 74.0156
- Raw data (SEAP) [37]: 16.5565
- Normalized data (SEAP) [38]: 100
- Raw data (SEAP) [38]: 22.3689
- Normalized data (SEAP) [39]: 57.787
- Raw data (SEAP) [39]: 12.9263
- Normalized data (SEAP) [40]: 39.6131
- Raw data (SEAP) [40]: 8.861
- Normalized data (SEAP) [41]: 30.6519
- Raw data (SEAP) [41]: 6.8565
- Normalized data (SEAP) [42]: 26.3116
- Raw data (SEAP) [42]: 5.886
- Normalized data (SEAP) [43]: 9.095
- Raw data (SEAP) [43]: 7.283
- Normalized data (SEAP) [44]: 10.2911
- Raw data (SEAP) [44]: 8.241
- Normalized data (SEAP) [45]: 55.7186
- Raw data (SEAP) [45]: 44.6179
- Normalized data (SEAP) [46]: 64.2529
- Raw data (SEAP) [46]: 51.4519
- Normalized data (SEAP) [47]: 100
- Raw data (SEAP) [47]: 80.0772
- Normalized data (SEAP) (SuppFigure 9c, LD3, A-1155463 316 nM): 76.4435

— PMC11062894, “Protein-based bandpass filters for controlling cellular signaling with chemical inputs” (Nature Chemical Biology, 2023)
